≈ marks a conversion by molar mass, not a printed value.
Test system: Mycobacterium tuberculosis
Assay: Antitubercular activity against multidrug-resistant Mycobacterium tuberculosis
Format: functional

SMILES	MIC
O=[N+]([O-])C1CN2C[C@H](OCc3ccc(OC(F)(F)F)cc3)COC2=N1 (stereo partly drawn)	0.039 to 0.531 µg/mL (≈ 0.108 to 1.47 µM)
[O-]/[N+](O)=C1/CN2C[C@H](OCc3ccc(OC(F)(F)F)cc3)COC2=N1	0.039 to 0.531 µg/mL (≈ 0.108 to 1.47 µM)
FC(F)(F)Oc1ccc(CO[C@@H]2COc3nccn3C2)cc1	0.039 to 0.531 µg/mL (≈ 0.124 to 1.69 µM)

Source: ChEMBL document CHEMBL4316582, “Nitro-Group-Containing Drugs” (J Med Chem, 2019)
